Among the data in US9346761B2, “Arginine methyltransferase inhibitors and uses thereof” (Epizyme, Inc., priority 2013, dated 2016) are IC50 values, retold here.

One test addresses T1, Full-length human PRMT6 (Homo sapiens, UniProt Q96LA8).
T1 construct: Flag-PRMT6-His was eluted with 200 ug/ml FLAG peptide in the same buffer; made in house; host or cells: HEK 293F cells (BacMam virus, pFastBacMam)
Description: PRMT6 biochemical assay (3H-SAM Flashplate, peptide substrate). The gist of the method: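 Read-out is 3H-methylated histone H4 (36-50) peptide bound to streptavidin Flashplates after a cold-SAM stop. Baculovirus-expressed Flag-PRMT6-His met compound for 30 min at room temperature before SAM and peptide; Bicine pH 7.6 buffer. IC50 fitted to % inhibition normalized to SAH (min) and DMSO (max).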

In a further test the target is T2, Full-length human PRMT8 (Homo sapiens, UniProt Q9NR22).
T2 construct: Full-length human PRMT8 (NM_019854.4) isoform 1 transcript clone; made in house
T2 sequence (Q9NR22 whole entry, canonical isoform): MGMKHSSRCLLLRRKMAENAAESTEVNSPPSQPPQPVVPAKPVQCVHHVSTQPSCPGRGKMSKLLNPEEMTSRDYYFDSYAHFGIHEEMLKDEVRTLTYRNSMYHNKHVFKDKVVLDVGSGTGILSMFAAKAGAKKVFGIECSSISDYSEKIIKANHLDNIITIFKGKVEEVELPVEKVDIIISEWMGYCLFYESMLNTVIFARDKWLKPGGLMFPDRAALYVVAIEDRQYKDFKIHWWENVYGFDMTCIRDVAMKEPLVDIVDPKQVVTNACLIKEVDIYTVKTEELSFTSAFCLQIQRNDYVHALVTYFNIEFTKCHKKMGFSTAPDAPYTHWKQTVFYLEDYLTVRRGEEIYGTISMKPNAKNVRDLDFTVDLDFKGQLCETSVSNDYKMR
As to the kind of experiment: PRMT8 biochemical assay (3H-SAM Flashplate, peptide substrate). An excerpt: General Materials. S-adenosylmethionine (SAM), S-adenosylhomocysteine (SAH), bicine, Tween20, dimethylsulfoxide (DMSO), bovine skin gelatin (BSG), isopropyl-β-D-thiogalactopyranoside (IPTG), and Tris(2-carboxyethyl)phosphine hydrochloride solution (TCEP) were purchased from Sigma-Aldrich at the highest level of purity possible. ^3H-SAM was purchase from American Radiolabeled Chemicals with a specific activity of 80 Ci/mmol. 384-well streptavidin Flashplates were purchased from PerkinElmer.
Substrates. Peptide representative of human histone H4 residues 31-45 was synthesized with an N-terminal linker-affinity tag motif and a C-terminal amide cap by 21st Century Biochemicals.
Protein Expression. E. coli (BL21(DE3) Gold, Stratagene) made competent by the CaCl2 method were transformed with the PRMT8 construct and ampicillin selection. Protein over-expression was accomplished by growing the PRMT8 expressing E. coli clone and inducing expression with 0.3 mM IPTG at 16° C. The culture was grown for 12 hours, harvested by centrifugation, and stored at −80° C. for purification.
Protein Purification. […] GST-tagged PRMT8 was eluted with 50 mM Tris, 2 mM glutathione, pH 7.8. Pooled fractions were cleaved by thrombin (10 U) and dialysed in buffer A. GST was removed by reloading the cleaved protein sample onto glutathione sepharose column and PRMT8 was collected in the flow-through fractions. PRMT8 was purified further by ceramic hydroxyapatite chromatography. The column was washed with 50 mM phosphate buffer, 100 mM NaCl, 5% glycerol, 5 mM β-mercaptoethanol, pH 7.8 and PRMT8 was eluted by 100 mM phosphate in the same buffer. Protein was concentrated and buffer was exchanged to 50 mM Tris, 300 mM NaCl, 10% glycerol, 5 mM β-mercaptoethanol, pH 7.8 by ultrafiltration.
General Procedure for PRMT8 Enzyme Assays on Peptide Substrates. The assays were all performed in a buffer consisting of 20 mM Bicine (pH=7.6), 1 mM TCEP, 0.005% BSG, and 0.002% Tween 20, prepared on the day of use. […] DMSO (1 ul) was added to Columns 11, 12, 23, 24, rows A-H for the maximum signal control and 1 ul of SAH, a known product and inhibitor of PRMT8, was added to columns 11, 12, 23, 24, rows I-P for the minimum signal control. A cocktail (40 ul) containing the PRMT8 enzyme was added by Multidrop Combi (Thermo-Fisher). The compounds were allowed to incubate with PRMT8 for 30 min at room temperature, then a cocktail (10 ul) containing ^3H-SAM and peptide was added to initiate the reaction (final volume=51 ul). […] The assays were stopped by the addition of non-radiolabeled SAM (10 ul) to a final concentration of 400 uM, which dilutes the ^3H-SAM to a level where its incorporation into the peptide substrate is no longer detectable. 50 ul of the reaction in the 384-well polypropylene plate was then transferred to a 384-well Flashplate and the biotinylated peptides were allowed to bind to the streptavidin surface for at least 1 hour before being washed once with 0.1% Tween20 in a Biotek ELx405 plate washer. The plates were then read in a PerkinElmer TopCount plate reader to measure the quantity of ^3H-labeled peptide bound to the Flashplate surface, measured as disintegrations per minute (dpm) or alternatively, referred to as counts per minute (cpm).
Where dpm=disintegrations per minute, cmpd=signal in assay well, and min and max are the respective minimum and maximum signal controls.
Where top and bottom are the normally allowed to float, but may be fixed at 100 or 0 respectively in a 3-parameter fit. The Hill Coefficient normally allowed to float but may also be fixed at 1 in a 3-parameter fit. Y is the % inhibition and X is the compound concentration.

Counter-ions that a name gives are not always drawn.

T1 sequence (Q96LA8 with tags, fused parts or gaps): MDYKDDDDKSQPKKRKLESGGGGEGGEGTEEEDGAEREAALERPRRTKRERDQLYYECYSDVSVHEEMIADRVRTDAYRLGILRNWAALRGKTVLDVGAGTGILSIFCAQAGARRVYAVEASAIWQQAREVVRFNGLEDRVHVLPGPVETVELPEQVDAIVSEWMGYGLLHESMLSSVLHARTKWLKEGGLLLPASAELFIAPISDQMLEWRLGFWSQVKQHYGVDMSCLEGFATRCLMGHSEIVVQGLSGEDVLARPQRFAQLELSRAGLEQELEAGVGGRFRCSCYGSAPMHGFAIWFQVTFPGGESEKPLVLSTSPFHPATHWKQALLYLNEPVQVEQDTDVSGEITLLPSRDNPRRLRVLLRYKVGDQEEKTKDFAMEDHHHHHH

As a reminder, the IC50 is the concentration that gives 50% inhibition. On to `CCn1ncc(CN(C)CCNC)c1-c1ccc(OC(C)C)cc1` [Compound 252], for which the IC50 on Full-length human PRMT6 fell in the range of 0.101 to 1 µM.
Turning to `CNCCN(C)Cc1cn[nH]c1-c1cc(F)cc(F)c1` [Compound 18], the IC50 is less than 0.1 µM at Full-length human PRMT6 and 0.101 to 1 µM against Full-length human PRMT8.
For `CNCCN(C)Cc1cnn(CCCC(O)CO)c1-c1ccc(F)cc1` (centres unmarked) [Compound 31], the concentration for half-maximal inhibition (IC50) at Full-length human PRMT6 is 0.101 to 1 µM; on Full-length human PRMT8 it was 3.01 to 10 µM.
On to `CNCCN(C)Cc1cnn(C)c1-c1ccc(Oc2ccccc2)cc1` [Compound 208], for which the values for the IC50 at Full-length human PRMT6 and against Full-length human PRMT8 were less than 0.1 µM and 0.101 to 1 µM, respectively.
Take `CNCCN(C)Cc1cnn(C2CCCC2)c1-c1ccc(OC(C)C)cc1` [Compound 255]: the IC50 on Full-length human PRMT6 is less than 0.1 µM.
Still for that read-out and setting: for `CNCCN(C)Cc1cn(CC(N)=O)nc1-c1ccc(OC(C)C)cc1` [Compound 251] the value was 1.01 to 3 µM.
Turning to `CCNC(=O)c1cccc(-c2n[nH]cc2CN(C)CCNC)c1` [Compound 43], the results for the half-inhibitory concentration (IC50) against Full-length human PRMT6 and on Full-length human PRMT8 were less than 0.1 µM and 1.01 to 3 µM, respectively.
For `CN(CCN)Cc1c[nH]nc1-c1ccc(Oc2ccccc2)c(C(=O)N(C)C)c1` [Compound 226] the same measures were less than 0.1 µM and 3.01 to 10 µM.
For `CNCCN(C)Cc1c[nH]nc1-c1ccc(Cl)c(F)c1` [Compound 182] the same measures were less than 0.1 µM and 0.101 to 1 µM.
For `CNCCN(C)Cc1cnn(C2CC2)c1-c1ccc(F)cc1` [Compound 14] the same measures were less than 0.1 µM and 1.01 to 3 µM.
For `CNCCN(C)Cc1cn(C2CCOC2)nc1-c1ccc(OC(C)C)cc1` (centres unmarked) [Compound 215], at Full-length human PRMT6, the IC50 lay within 0.101 to 1 µM.
`CC(C)Oc1cccc(-c2n[nH]cc2CN(C)CCN)c1` [Compound 187]: the IC50 at Full-length human PRMT6 was less than 0.1 µM; against Full-length human PRMT8, 1.01 to 3 µM.
Taken in the same sequence, the figures for `CN(CCN)Cc1c[nH]nc1-c1ccc(Oc2ccccc2)c(C#N)c1` [Compound 202] were less than 0.1 µM and 0.101 to 1 µM.
As for `CC(C)CN1C(=O)COc2ccc(-c3n[nH]cc3CN(C)CCN)cc21` [Compound 191], the IC50 was in the range of 0.101 to 1 µM against Full-length human PRMT6 and 3.01 to 10 µM at Full-length human PRMT8.
For `CNCCN(C)Cc1n[nH]cc1-c1ccc(OC(C)C)c(F)c1` [Compound 210] the same measures were less than 0.1 µM and 0.101 to 1 µM.
Taken in the same sequence, the figures for `CNCCN(C)Cc1c[nH]nc1-c1ccc(CO)cc1` [Compound 28] were less than 0.1 µM and less than 0.1 µM.
`CNCCN(C)Cc1cn(Cc2ccccc2)nc1-c1ccc(OC(C)C)cc1` [Compound 217] had an IC50 against Full-length human PRMT6 of less than 0.1 µM.
`CN(CCN)Cc1c[nH]nc1-c1ccc(OCCCO)cc1` [Compound 195]: the values for the half-maximal inhibitory concentration (IC50) on Full-length human PRMT6 and at Full-length human PRMT8 were less than 0.1 µM and 0.101 to 1 µM, respectively.
For `CC(C)Oc1cc(-c2n[nH]cc2CN(C)CCN)ccc1F` [Compound 188] the same measures were less than 0.1 µM and 1.01 to 3 µM.
Regarding `CNCCN(C)Cc1n[nH]cc1-c1ccc(Oc2ccccc2)cc1` [Compound 204], the IC50 at Full-length human PRMT6 and against Full-length human PRMT8 was less than 0.1 µM throughout.
With `CNCCN(C)Cc1cn(C2CC2)nc1-c1ccc(F)cc1` [Compound 13], the concentration for half-maximal inhibition (IC50) against Full-length human PRMT6 was 0.101 to 1 µM; against Full-length human PRMT8 it was greater than 10 µM.
For `CNCCN(C)Cc1c[nH]nc1-c1ccc(OC)cc1` [Compound 25] the same measures were less than 0.1 µM and 0.101 to 1 µM.
For `CCNC(=O)c1cccc(-c2n[nH]cc2CN(C)CCN)c1` [Compound 197] the same measures were less than 0.1 µM and 1.01 to 3 µM.
For `CN(CCN)Cc1c[nH]nc1-c1ccc(Oc2ccc(F)cc2)cc1` [Compound 225, N^1-((3-(4-(4-fluorophenoxy)phenyl)-1H-pyrazol-4-yl)methyl)-N^1-methylethane-1,2-diamine] the same measures were less than 0.1 µM and less than 0.1 µM.
On to `CC(C)CN1C(=O)COc2cc(-c3n[nH]cc3CN(C)CCN)ccc21` [Compound 193], for which the IC50 at Full-length human PRMT6 and against Full-length human PRMT8 was 0.101 to 1 µM in each case.
For `CNCCN(C)Cc1cn(C2CCCCC2)nc1-c1ccc(OC(C)C)cc1` [Compound 256], the IC50 at Full-length human PRMT6 was in the range of 0.101 to 1 µM; at Full-length human PRMT8 it was 1.01 to 3 µM.
For `Cc1cc(-c2n[nH]cc2CN(C)CCN)cc(C)c1OC(C)C` [Compound 199, N^1-((3-(4-isopropoxy-3,5-dimethylphenyl)-1H-pyrazol-4-yl)methyl)-N^1-methylethane-1,2-diamine] the same measures were 0.101 to 1 µM and 0.101 to 1 µM.
In turn, `CNCCN(C)Cc1cn(C2CCC2)nc1-c1ccc(OC(C)C)cc1` [Compound 254, N1-((1-cyclobutyl-3-(4-isopropoxyphenyl)-1H-pyrazol-4-yl)methyl)-N1,N2-dimethylethane-1,2-diamine hydrochloride] yielded an IC50 at Full-length human PRMT6 of 0.101 to 1 µM.
With `CNCCN(C)Cc1c[nH]nc1-c1cccc(O)c1` [Compound 26], the IC50 on Full-length human PRMT6 was less than 0.1 µM; on Full-length human PRMT8 it was 1.01 to 3 µM.
`CC(C)Oc1ccc(-c2c[nH]nc2CN(C)CCN)cc1Cl` [Compound 211]: the values for the IC50 on Full-length human PRMT6 and on Full-length human PRMT8 were less than 0.1 µM and 0.101 to 1 µM, respectively.
`CNCCN(C)Cc1cnn(C2CCOC2)c1-c1ccc(OC(C)C)cc1` (centres unmarked) [Compound 216]: the IC50 against Full-length human PRMT6 was less than 0.1 µM.
As to `CCCc1ccc(-c2n[nH]cc2CN(C)CCNC)cc1` [Compound 20], the concentration for half-maximal inhibition (IC50) at Full-length human PRMT6 and on Full-length human PRMT8 was less than 0.1 µM each time.
Consider `CNC(=O)c1cc(-c2n[nH]cc2CN(C)CCN)ccc1Oc1ccccc1` [Compound 227], for which the results for the 50% inhibitory concentration (IC50) against Full-length human PRMT6 and against Full-length human PRMT8 were less than 0.1 µM and 0.101 to 1 µM, respectively.
For `CCN(C)C(=O)c1cccc(-c2n[nH]cc2CN(C)CCN)c1` [Compound 198] the same measures were 0.101 to 1 µM and greater than 10 µM.
Turning to `C=CCn1ncc(CN(C)CCNC)c1-c1ccc(OC(C)C)cc1` [Compound 219], the IC50 at Full-length human PRMT6 is less than 0.1 µM.
As for `CNCCN(C)Cc1c[nH]nc1-c1ccc(N)cc1` [Compound 33], the results for the concentration for half-maximal inhibition (IC50) against Full-length human PRMT6 and against Full-length human PRMT8 were less than 0.1 µM and 1.01 to 3 µM, respectively.
On Full-length human PRMT6, `CNCCN(C)Cc1cn(C)nc1-c1ccc(OC(C)C)cc1` [Compound 243, N1-((3-(4-isopropoxyphenyl)-1-methyl-1H-pyrazol-4-yl)methyl)-N1,N2-dimethylethane-1,2-diamine] showed a half-inhibitory concentration (IC50) of 0.101 to 1 µM.
Take `CNCCN(C)Cc1cn(Cc2cccnc2)nc1-c1ccc(OC(C)C)cc1` [Compound 246]: on Full-length human PRMT6, the IC50 lay within 0.101 to 1 µM.
At Full-length human PRMT6, `CNCCN(C)Cc1cn(CCOC)nc1-c1ccc(OC(C)C)cc1` [Compound 253, N1-((3-(4-isopropoxyphenyl)-1-(2-methoxyethyl)-1H-pyrazol-4-yl)methyl)-N1,N2-dimethylethane-1,2-diamine hydrochloride] gave an IC50 of 0.101 to 1 µM.
Molecule `C=CCn1cc(CN(C)CCNC)c(-c2ccc(OC(C)C)cc2)n1` [Compound 218] had an IC50 against Full-length human PRMT6 of 0.101 to 1 µM.
On Full-length human PRMT6, `CNCCN(C)Cc1cn(C2CCCC2)nc1-c1ccc(OC(C)C)cc1` [Compound 214] came in with an IC50 of 0.101 to 1 µM.
Still for that read-out and setting: for `CCn1cc(CN(C)CCNC)c(-c2ccc(OC(C)C)cc2)n1` [Compound 213] the value was less than 0.1 µM.
In the case of `CNCCN(C)Cc1cn(Cc2ccccn2)nc1-c1ccc(OC(C)C)cc1` [Compound 247], at Full-length human PRMT6, the half-maximal inhibitory concentration (IC50) was in the range of 0.101 to 1 µM.
In turn, `CNCCN(C)Cc1cn(CC(=O)OC)nc1-c1ccc(OC(C)C)cc1` [Compound 248] showed an IC50 at Full-length human PRMT6 of 0.101 to 1 µM.
Same read-out and setting: for `C=C(C)C(=O)Nc1cccc(-c2[nH]ncc2CN(C)CCNC)c1` [Compound 257] the value was 0.101 to 1 µM; for `C=CC(=O)Nc1cccc(-c2[nH]ncc2CN(C)CCNC)c1` [Compound 258], 0.101 to 1 µM.
